Measured values from patent publication US8207178B2 (priority 2007, dated 2012).
Like-named read-outs stand apart in the source and are kept apart here.

Assays:
wild type HIV-1 = test: microbe, parasite or virus in culture; assay type: cell-based, human immunodeficiency virus type 1 (HIV-1); conditions: Human immunodeficiency virus 1, Hela-JC53
HIV-1 K103N-L100I mutant = test: microbe, parasite or virus in culture; assay type: cell-based, human immunodeficiency virus type 1 (HIV-1)
[1] = Human immunodeficiency virus 1, HeLa, read-out: EC50 mutant K103N-L100I, mutant K103N-L100I

SMILES | EC50 (wild type HIV-1) | EC50 (HIV-1 K103N-L100I mutant; [1]) | EC50 (HIV-1 K103N-L100I mutant; read-out: EC50 mutant K103N-L100I, mutant K103N-L100I)
Cc1cc(-c2ccc(C(N)=O)cc2)cc(C)c1Oc1nc(Nc2ccc(C#N)cc2)nc2c1ncn2C [Example 109, 4′-(2-(4-cyanophenylamino)-9-methyl-9H-purin-6-yloxy)-3′,5′-dimethylbiphenyl-4-carboxamide] | < 1 nM | 1 to 10 nM | –
Cc1cc(-c2ccc(S(N)(=O)=O)cc2)cc(Cl)c1Oc1nc(Nc2ccc(C#N)cc2)nc2ncn(C)c12 [Example 115, 3′-chloro-4′-(2-(4-cyanophenylamino)-7-methyl-7H-purin-6-yloxy)-5′-methylbiphenyl-4-sulfonamide] | < 1 nM | < 1 nM | –
Cc1cc(-c2cccc3ncccc23)cc(C)c1Oc1nc(Nc2ccc(C#N)cc2)nc2ccn(C)c12 [Example 38, 4-(4-(2,6-Dimethyl-4-(quinolin-5-yl)phenoxy)-5-methyl-5H-pyrrolo[3,2-d]pyrimidin-2-ylamino) benzonitrile] | 1 to 10 nM | 1 to 10 nM | –
Cc1cc(-c2ccnnc2)cc(C)c1Oc1nc(Nc2ccc(C#N)cc2)nc2c1ncn2C [Example 59, 4-(6-(2,6-Dimethyl-4-(pyridazin-4-yl)phenoxy)-9-methyl-9H-purin-2-ylamino)benzonitrile] | 1 to 10 nM | > 10 nM | –
Cc1cc(-c2ccnn2C)cc(C)c1Oc1nc(Nc2ccc(C#N)cc2)nc2nc[nH]c12 [Example 47, 4-(6-(2,6-Dimethyl-4-(1-methyl-1H-pyrazol-5-yl)phenoxy)-7H-purin-2-ylamino)benzonitrile] | 1 to 10 nM | > 10 nM | –
COc1cccc(-c2cc(C)c(Oc3nc(Nc4ccc(C#N)cc4)nc4ccn(C)c34)c(C)c2)c1C#N [Example 81, 4′-(2-(4-cyanophenylamino)-5-methyl-5H-pyrrolo[3,2-d]pyrimidin-4-yloxy)-3-methoxy-3′,5′-dimethylbiphenyl-2-carbonitrile] | 1 to 10 nM | > 10 nM | –
Cc1cc(-c2ccncc2C#N)cc(C)c1Oc1nc(Nc2ccc(C#N)cc2)nc2ccn(C)c12 [Example 23, 4-(4-(2-(4-Cyanophenylamino)-5-methyl-5H-pyrrolo[3,2-d]pyrimidin-4-yloxy)-3,5-dimethyl-phenyl)nicotinonitrile] | < 1 nM | – | > 10 nM
COc1cnccc1-c1cc(C)c(Oc2nc(Nc3ccc(C#N)cc3)nc3ccn(C)c23)c(C)c1 [Example 9, 4-(4-(4-(3-Methoxypyridin-4-yl)-2,6-dimethylphenoxy)-5-methyl-5H-pyrrolo[3,2-d]pyrimidin-2-ylamino) benzonitrile] | 1 to 10 nM | 1 to 10 nM | –
Cc1cc(-c2cccnc2Cl)cc(C)c1Oc1nc(Nc2ccc(C#N)cc2)nc2ccn(C)c12 [Example 80, 4-(4-(4-2-chloropyridin-3-yl)-2,6-dimethylphenoxy)-5-methyl-5H-pyrrolo[3,2-d] pyrimidin-2-ylamino benzonitrile] | 1 to 10 nM | 1 to 10 nM | –
Cc1cc(-c2ccc(C(=O)N3CCC3)cn2)cc(C)c1Oc1nc(Nc2ccc(C#N)cc2)nc2[nH]cnc12 [Example 125, 4-(6-(4-(5-(azetidine-1-carbonyl)pyridin-2-yl)-2,6-dimethylphenoxy)-9H-purin-2-ylamino)benzonitrile] | 1 to 10 nM | 1 to 10 nM | –
Cc1cc(-c2ccc(C(N)=O)cc2F)cc(C)c1Oc1nc(Nc2ccc(C#N)cc2)nc2c1ncn2C [Example 56, 4′-(2-(4-Cyanophenylamino)-9-methyl-9H-purin-6-yloxy)-2-fluoro-3′,5′-dimethylbiphenyl-4-carboxamide] | 1 to 10 nM | 1 to 10 nM | –
Cc1cc(-c2cncnc2)cc(C)c1Oc1nc(Nc2ccc(C#N)cc2)nc2ccn(C)c12 [Example 14, 4-(4-(2,6-dimethyl-4-(pyrimidin-5-yl)phenoxy)-5-methyl-5H-pyrrolo[3,2-d]pyrimidin-2-ylamino) benzonitrile] | < 1 nM | 1 to 10 nM | –
Cn1cnc2nc(Nc3ccc(C#N)cc3)nc(Oc3c(Cl)cc(-c4ccc(C(N)=O)cc4)cc3Cl)c21 [Example 112, 3′,5′-dichloro-4′-(2-(4-cyanophenylamino)-7-methyl-7H-purin-6-yloxy)biphenyl-4-carboxamide] | < 1 nM | 1 to 10 nM | –
Cc1cc(-c2ccc(N(C)C)cc2)cc(C)c1Oc1nc(Nc2ccc(C#N)cc2)nc2ccn(C)c12 [Example 22, 4-(4-(4′-(Dimethylamino)-3,5-dimethylphenyl-4-yloxy)-5-methyl-5H-pyrrolo[3,2-d]pyrimidin-2-ylamino)benzonitrile] | 1 to 10 nM | > 10 nM | –
Cc1cc(-c2ccncn2)cc(C)c1Oc1nc(Nc2ccc(C#N)cc2)nc2ccn(C)c12 [Example 48, 4-(4-(2,6-Dimethyl-4-(pyrimidin-4-yl)phenoxy)-5-methyl-5H-pyrrolo [3,2-d]pyrimidin-2-ylamino)benzonitrile] | 1 to 10 nM | 1 to 10 nM | –
Cc1cc(-c2ccc(C(N)=O)nc2)cc(C)c1Oc1nc(Nc2ccc(C#N)cc2)nc2c1ncn2C [Example 119, 5-(4-(2-(4-cyanophenylamino)-9-methyl-9H-purin-6-yloxy)-3,5-dimethylphenyl)picolinamide] | < 1 nM | > 10 nM | –
N#Cc1ccc(Nc2nc(Oc3c(Cl)cc(-c4ccncc4)cc3Cl)c3[nH]cnc3n2)cc1 [Example 104, 4-(6-(2,6-Dichloro-4-(pyridin-4-yl)phenoxy)-7H-purin-2-ylamino)benzonitrile] | 1 to 10 nM | 1 to 10 nM | –
N#Cc1ccc(Nc2nc(Oc3ccc(-c4ccncc4)cc3Cl)c3[nH]cnc3n2)cc1 [Example 102, 4-(6-(2-Chloro-4-(pyridin-4-yl)phenoxy)-7H-purin-2-ylamino)benzonitrile] | < 1 nM | > 10 nM | –
Cc1cc(-c2ccccc2S(N)(=O)=O)cc(C)c1Oc1nc(Nc2ccc(C#N)cc2)nc2ccn(C)c12 [Example 73, 4′-(2-(4-cyanophenylamino)-5-methyl-5H-pyrrolo[3,2-d]pyrimidin-4-yloxy)-3′,5′-dimethylbiphenyl-2-sulfonamide] | > 10 nM | > 10 nM | –
Cc1cc(-c2ccnc(N3CCOCC3)c2Cl)cc(C)c1Oc1nc(Nc2ccc(C#N)cc2)nc2ccn(C)c12 [Example 79, 4-(4-(4-(3-chloro-2-morpholinopyridin-4-yl)-2,6-dimethylphenoxy)-5-methyl-5H-pyrrolo[3,2-d]pyrimidin-2-ylamino)benzonitrile] | 1 to 10 nM | 1 to 10 nM | –
Cc1cc(-c2ccc(C(=O)N3CCC(C#N)C3)cc2)cc(C)c1Oc1nc(Nc2ccc(C#N)cc2)nc2ccn(C)c12 (stereo not shown) [Example 91, 1-(4′-(2-(4-cyanophenylamino)-5-methyl-5H-pyrrolo[3,2-d]pyrimidin-4-yloxy)-3′,5′-dimethylbiphenylcarbonyl) pyrrolidine-3-carbonitrile] | > 10 nM | > 10 nM | –
Cc1cc(-c2ccccc2S(=O)(=O)NC(C)(C)C)cc(C)c1Oc1nc(Nc2ccc(C#N)cc2)nc2ccn(C)c12 [Example 74, N-tert-butyl-4′-(2-(4-cyanophenylamino)-5-methyl-5H-pyrrolo[3,2-d]pyrimidin-4-yloxy)-3′,5′-dimethylbiphenyl-2-sulfonamide] | > 10 nM | > 10 nM | –
Cc1cc(-c2ccc3c(c2)OCO3)cc(C)c1Oc1nc(Nc2ccc(C#N)cc2)nc2ccn(C)c12 [Example 69, 4-(4-(4-(benzo[d][1,3]dioxol-5-yl)-2,6-dimethylbiphenoxy)-5-methyl-5H-pyrrolo[3,2-d]pyrimidin-2-ylamino) benzonitrile] | 1 to 10 nM | > 10 nM | –
